Key:
Settings in all cases: 72 h
Vero E6 [1] = test: cell viability relative to DMSO; higher = less toxic
U2OS [2] = test: as above
Caco-2 [3] = test: as above
HepG2 [4] = test: as above
Vero E6 [5] = test: drug sensitivity score (DSS) for viability; higher = more toxic; extreme values may be limits of the assay
U2OS [6] = test: as above
Caco-2 [7] = test: as above
HepG2 [8] = test: as above
Vero E6 [9] = test: relative viability EC50 (midpoint between 100% and the lowest measured viability); higher = less toxic
U2OS [10] = test: as above
Caco-2 [11] = test: as above
HepG2 [12] = test: as above
Calu-3 [13] = test: cell viability relative to DMSO; higher = less toxic
Calu-3 [14] = test: drug sensitivity score (DSS) for viability; higher = more toxic; extreme values may be limits of the assay

| SMILES | cell viability (Vero E6 [1]; 1 nM) [%] | cell viability (Vero E6 [1]; 10 nM) [%] | cell viability (Vero E6 [1]; 100 nM) [%] | cell viability (Vero E6 [1]; 1000 nM) [%] | cell viability (Vero E6 [1]; 10000 nM) [%] | cell viability (U2OS [2]; 1 nM) [%] | cell viability (U2OS [2]; 10 nM) [%] | cell viability (U2OS [2]; 100 nM) [%] | cell viability (U2OS [2]; 1000 nM) [%] | cell viability (U2OS [2]; 10000 nM) [%] | cell viability (Caco-2 [3]; 1 nM) [%] | cell viability (Caco-2 [3]; 10 nM) [%] | cell viability (Caco-2 [3]; 100 nM) [%] | cell viability (Caco-2 [3]; 1000 nM) [%] | cell viability (Caco-2 [3]; 10000 nM) [%] | cell viability (HepG2 [4]; 1 nM) [%] | cell viability (HepG2 [4]; 10 nM) [%] | cell viability (HepG2 [4]; 100 nM) [%] | cell viability (HepG2 [4]; 1000 nM) [%] | cell viability (HepG2 [4]; 10000 nM) [%] | drug sensitivity score (Vero E6 [5]) | drug sensitivity score (U2OS [6]) | drug sensitivity score (Caco-2 [7]) | drug sensitivity score (HepG2 [8]) | relative viability EC50 (Vero E6 [9]) [µM] | relative viability EC50 (U2OS [10]) [µM] | relative viability EC50 (Caco-2 [11]) [µM] | relative viability EC50 (HepG2 [12]) [µM] | cell viability (Calu-3 [13]; 1 nM) [%] | cell viability (Calu-3 [13]; 10 nM) [%] | cell viability (Calu-3 [13]; 100 nM) [%] | cell viability (Calu-3 [13]; 1000 nM) [%] | cell viability (Calu-3 [13]; 10000 nM) [%] | drug sensitivity score (Calu-3 [14]) |
| --- | --- | --- | --- | --- | --- | --- | --- | --- | --- | --- | --- | --- | --- | --- | --- | --- | --- | --- | --- | --- | --- | --- | --- | --- | --- | --- | --- | --- | --- | --- | --- | --- | --- | --- |
| COc1cccc(-c2ccc(NC(=O)C3=C(C(=O)O)CCC3)c(F)c2)c1 | 90.1 | 92.2 | 98 | 95.8 | 90.8 | 99 | 105 | 96.8 | 104 | 96.2 | 96.4 | 93.1 | 103 | 98.6 | 78.8 | 103 | 89.4 | 98.8 | 97.5 | 92.6 | 0 | 0 | 0.9 | 0 | > 10 | > 10 | > 10 | > 10 |  |  |  |  |  |  |
| Cc1cccc(-c2[nH]c(C(C)(C)C)nc2-c2ccc3c(c2)OCO3)n1 | 104 | 101 | 107 | 96.2 | 81.7 | 98.8 | 98.6 | 90.6 | 95.4 | 69.2 | 95.4 | 94.3 | 98.3 | 77.1 | 15 | 94.6 | 102 | 101 | 75.2 | 4.5 | 0.9 | 2.1 | 8.2 | 9.1 | > 10 |  | 1.49 | 1.52 | 102 | 95.2 | 107 | 103 | 70.3 | 1.1 |
| Cc1cccc(-c2n[nH]cc2-c2ccc(F)c(-c3cnn(CCO)c3)c2)n1 | 96.1 | 101 | 98 | 93.4 | 94.5 | 103 | 98.8 | 95.7 | 89.3 | 92.6 | 93.3 | 91.9 | 99.7 | 92.5 | 91.5 | 103 | 94.1 | 95.2 | 106 | 109 | 0 | 0.1 | 0 | 0 | > 10 | > 10 | > 10 | > 10 |  |  |  |  |  |  |
| N#Cc1ccc(COC[C@H]2O[C@@H](n3c(NCc4ccc(Cl)c(Cl)c4)nc4c(N)ncnc43)[C@H](O)[C@@H]2O)cc1 | 101 | 97.8 | 106 | 99.9 | 99.4 | 95.6 | 97.9 | 93.7 | 97.4 | 64.9 | 94.5 | 98.9 | 91.8 | 101 | 52.8 | 94.2 | 93.4 | 101 | 82.5 | 20.4 | 0 | 2 | 2.3 | 7.2 | > 10 |  |  | 1.66 | 96.9 | 93.3 | 99.6 | 86.2 | 52.8 | 4.5 |
| O=C(O)c1cc2occc2[nH]1 | 107 | 104 | 102 | 99.8 | 101 | 98.6 | 104 | 99.5 | 102 | 98.7 | 91.3 | 89 | 94.2 | 94.1 | 94.6 | 99.2 | 104 | 103 | 92.6 | 103 | 0 | 0 | 0 | 0 | > 10 | > 10 | > 10 | > 10 |  |  |  |  |  |  |
| Cc1cc(C(=O)O)sc1C(N)C(=O)O (centres undefined) [3-MATIDA] | 92.6 | 99.2 | 95.2 | 93.5 | 98 | 103 | 110 | 96.8 | 102 | 97.5 | 96.9 | 105 | 97.3 | 99.4 | 96.9 | 96.4 | 94.8 | 83.2 | 96.3 | 91.8 | 0 | 0 | 0 | 0 | > 10 | > 10 | > 10 | > 10 |  |  |  |  |  |  |
| Nc1cc2c3ccccc3ccc2c2ccccc12 [6-aminochrysene] |  |  |  |  |  |  |  |  |  |  |  |  |  |  |  |  |  |  |  |  | 0.2 | 4.4 |  | 3 |  |  |  |  |  |  |  |  |  | 0 |
| CN(C)CCN(C)CCc1ccc(Cl)c(Cl)c1 [BD-1047] | 94.5 | 104 | 96.8 | 93.6 | 97.4 | 97.2 | 102 | 93.4 | 97.5 | 94.7 | 95.4 | 102 | 98.3 | 94.6 | 91.8 | 98.3 | 102 | 96.2 | 85.5 | 89.9 | 0 | 0 | 0 | 1.6 | > 10 | > 10 | > 10 | > 10 |  |  |  |  |  |  |

From the supplement of paper PMC13380429
